Experimental data from patent US11034692B1 (Genentech, Inc., priority 2017, dated 2021).

target: HPK1; test: HPK1 Lantha Binding Assay ("Lanth"); conditions: Table B1-1, read-out: HPK1 Ki (μM) (Lanth)
Description: HPK1 Lantha Binding Assay (“Lanth”)
The compounds to be tested were diluted by preparing 12.5 uL/well of 5 mM compound (100×) in columns 2 and 13 and 10 ul/well of DMSO in columns 3-12, 14-23, and wells A1-H1 and I24-P24 of the compound plate using a Bravo liquid handling platform. For the reference compound, the top concentration was 1 mM. To the plate was added 10 ul 2 mM staurosporine in wells J1-P1 and A24-H24. A 11 point 5-fold compound serial dilution was performed using the Bravo liquid handling platform. From the plate were transferred 2.5 ul of the solutions from column 2 and column 13 to the 10 ul of DMSO in columns 3 and 14 & so on. The compound plate was centrifuged at 2500 rpm for 1 min. From the compound plate was transferred 80 nl of the compounds into an assay plate using the Echo liquid handler system. One compound plate makes two assay plates. Each assay plate is sealed and stored in an N2 cabinet.
The following assay concentrations and times were used: 2 nM HPK1, 2 nM Eu-Anti-GST Ab, and 15 nM Tracer222, with 60 min incubation time.
III. HPK Lantha Binding Assay:
For the binding assay, 4 ul 2×HPK1 and Eu-anti-GST antibody were added to each well of the assay plate using a Multidrop reagent dispenser. The solutions were incubated in a 23 C incubator for 1 h. To each well of the assay plate was added 4 ul 2× Tracer-222 using a Multidrop reagent dispenser. The solutions were again incubated in a 23 C incubator for 1 h. The results of the assay were read using an Envision plate reader with the following parameters: TR_FRET, 340ex/615 and 665em; 100 usec Delay; and 200 usec integration.
Compound Ki was analyzed using Morrison ki fit model in XL-fit • a. fit=(1−((((E+x)+(Ki*(1+(S/Kd))))−(((((E+x)+(Ki*(1+(S/Kd))))[…])−((4*E)*x))^0.5))/(2*E))) • res=(y-fit) • b. Parameters: • E=enzyme concentration • S=Tracer222 concentration, Kd=Tracer222 Kd • All measurements reported using the same units (uM)
Exemplary compounds of Formula I or Ia were tested in the binding assays. The Ki data in Table B1-1 are based on the “Lanth” assay.

Ki	Compound
0.00173 µM	COc1ccncc1-c1cc2cc(NC(=O)[C@@H]3C[C@@H]3F)ncc2c(N)n1 [Compound 10, (1S,2S)—N-(8-amino-6-(4-methoxypyridin-3-yl)-2,7-naphthyridin-3-yl)-2-fluorocyclopropanecarboxamide]
0.00365 µM	Cc1ccncc1-c1cc2cc(NC(=O)C3CC3(F)F)ncc2c(N)n1 (centres unmarked) [Compound 11, N-(8-amino-6-(4-methylpyridin-3-yl)-2,7-naphthyridin-3-yl)-2,2-difluorocyclopropanecarboxamide]
0.00322 µM	CCc1ccncc1-c1cc2cc(NC(=O)C3CCC3)ncc2c(N)n1 [Compound 20, N-[8-amino-6-(4-ethyl-3-pyridyl)-2,7-naphthyridin-3-yl]cyclobutanecarboxamide]
0.00021 µM	CCc1ccncc1-c1cc2cc(NC(=O)C3CC3)ncc2c(N)n1 [Compound 26, N-(8-amino-6-(4-ethylpyridin-3-yl)-2,7-naphthyridin-3-yl)cyclopropanecarboxamide]
0.0149 µM	CCc1ccncc1-c1cc2cc(NC(=O)CCC#N)ncc2c(N)n1 [Compound 28, N-[8-amino-6-(4-ethyl-3-pyridyl)-2,7-naphthyridin-3-yl]-3-cyano-propanamide]
0.014 µM	CCc1ccncc1-c1cc2cc(NC(=O)CCC(N)=O)ncc2c(N)n1 [Compound 29, N′-[8-amino-6-(4-ethyl-3-pyridyl)-2,7-naphthyridin-3-yl]butanediamide]
0.00175 µM	CCc1ccncc1-c1cc2cc(NC(=O)NCc3cncs3)ncc2c(N)n1 [Compound 30, 1-[8-amino-6-(4-ethyl-3-pyridyl)-2,7-naphthyridin-3-yl]-3-(thiazol-5-ylmethyl)urea]
0.0039 µM	CCc1ccncc1-c1cc2cc(NC(=O)NC(C)C)ncc2c(N)n1 [Compound 31, 1-[8-amino-6-(4-ethyl-3-pyridyl)-2,7-naphthyridin-3-yl]-3-isopropyl-urea]
0.0264 µM	CCc1ccncc1-c1cc2cc(NC(=O)CC#N)ncc2c(N)n1 [Compound 32, N-[8-amino-6-(4-ethyl-3-pyridyl)-2,7-naphthyridin-3-yl]-2-cyano-acetamide]
0.0341 µM	CCc1ccncc1-c1cc2cc(NC(=O)N(C)C)ncc2c(N)n1 [Compound 33, 3-[8-amino-6-(4-ethyl-3-pyridyl)-2,7-naphthyridin-3-yl]-1,1-dimethyl-urea]
2.03 µM	Cc1ccncc1-c1cc2cc(NC(=O)C(C)(C)O)ncc2c(N)n1 [Compound 39, N-(8-amino-6-(4-methylpyridin-3-yl)-2,7-naphthyridin-3-yl)-2-hydroxy-2-methylpropanamide]
0.048 µM	Nc1nc(-c2cnccc2CO)cc2cc(NC(=O)[C@@H]3C[C@@H]3F)ncc12 [Compound 44, (1S,2S)—N-(8-amino-6-(4-(hydroxymethyl)pyridin-3-yl)-2,7-naphthyridin-3-yl)-2-fluorocyclopropanecarboxamide]

The remaining lines, values behind:

Compound	Ki
Cc1cc2c(cc1-c1cc3cc(NC(=O)[C@H]4C[C@@H]4C#N)ncc3c(N)n1)C(O)C(=O)N2 (relative stereo) [Compound 160, trans-N-[8-amino-6-(3-hydroxy-6-methyl-2-oxo-indolin-5-yl)-2,7-naphthyridin-3-yl]-2-cyano-cyclopropanecarboxamide]	0.0012 µM
CCc1c(-c2cnccc2C)nc(N)c2cnc(NC(=O)[C@@H]3C[C@H]3CC#N)cc12 (stereo in doubt) [Compound 271, (1R,2S)—N-[8-amino-5-ethyl-6-(4-methylpyridin-3-yl)-2,7-naphthyridin-3-yl]-2-(cyanomethyl)cyclopropane-1-carboxamide]	0.000768 µM
Cn1cc([C@H]2C[C@@H]2C(=O)Nc2cc3cc(-c4ccccc4Cl)nc(N)c3cn2)cn1 (stereo in doubt) [Compound 304, (1S,2S)—N-[8-amino-6-(2-chlorophenyl)-2,7-naphthyridin-3-yl]-2-(1-methyl-1H-pyrazol-4-yl)cyclopropane-1-carboxamide]	0.00302 µM
Cn1cc([C@H]2C[C@@H]2C(=O)Nc2cc3cc(-c4c(F)cccc4F)nc(N)c3cn2)cn1 (stereo in doubt) [Compound 306, (1S,2S)—N-[8-amino-6-(2,6-difluorophenyl)-2,7-naphthyridin-3-yl]-2-(1-methyl-1H-pyrazol-4-yl)cyclopropane-1-carboxamide]	0.00325 µM
Cn1cc([C@@H]2C[C@H]2C(=O)Nc2cc3cc(-c4c(F)cccc4F)nc(N)c3cn2)cn1 (stereo in doubt) [Compound 307, (1R,2R)—N-[8-amino-6-(2,6-difluorophenyl)-2,7-naphthyridin-3-yl]-2-(1-methyl-1H-pyrazol-4-yl)cyclopropane-1-carboxamide]	0.000112 µM
Cc1ccncc1-c1cc2cc(NC(=O)[C@@H]3C[C@@H]3F)ncc2c(N)n1 [Compound 6, (1S,2S)—N-(8-amino-6-(4-methylpyridin-3-yl)-2,7-naphthyridin-3-yl)-2-fluorocyclopropanecarboxamide]	0.000793 µM
Cn1cc(-c2cc3cc(NC(=O)[C@@H]4C[C@@H]4F)ncc3c(N)n2)cn1 [Compound 7, (1S,2S)—N-(8-amino-6-(1-methyl-1H-pyrazol-4-yl)-2,7-naphthyridin-3-yl)-2-fluorocyclopropanecarboxamide]	0.00289 µM
CNC(=O)Nc1cc2cc(-c3cnn(C)c3)nc(N)c2cn1 [Compound 9, 1-(8-amino-6-(1-methyl-1H-pyrazol-4-yl)-2,7-naphthyridin-3-yl)-3-methylurea]	0.00716 µM
Cc1ncncc1-c1cc2cc(NC(=O)[C@@H]3C[C@@H]3F)ncc2c(N)n1 [Compound 12, (1S,2S)—N-(8-amino-6-(4-methylpyrimidin-5-yl)-2,7-naphthyridin-3-yl)-2-fluorocyclopropanecarboxamide]	0.0493 µM
CCc1ncncc1-c1cc2cc(NC(=O)[C@@H]3C[C@@H]3F)ncc2c(N)n1 [Compound 13, (1S,2S)—N-(8-amino-6-(4-ethylpyrimidin-5-yl)-2,7-naphthyridin-3-yl)-2-fluorocyclopropanecarboxamide]	0.0156 µM
Nc1nc(-c2cnccc2C(F)F)cc2cc(NC(=O)[C@@H]3C[C@@H]3F)ncc12 [Compound 14, (1S,2S)—N-(8-amino-6-(4-(difluoromethyl)pyridin-3-yl)-2,7-naphthyridin-3-yl)-2-fluorocyclopropanecarboxamide]	0.00946 µM
N#Cc1ccncc1-c1cc2cc(NC(=O)[C@@H]3C[C@@H]3F)ncc2c(N)n1 [Compound 15, (1S,2S)—N-(8-amino-6-(4-cyanopyridin-3-yl)-2,7-naphthyridin-3-yl)-2-fluorocyclopropanecarboxamide]	0.0226 µM
Cc1c(F)cncc1-c1cc2cc(NC(=O)[C@@H]3C[C@@H]3F)ncc2c(N)n1 [Compound 17, (1S,2S)—N-(8-amino-6-(5-fluoro-4-methylpyridin-3-yl)-2,7-naphthyridin-3-yl)-2-fluorocyclopropanecarboxamide]	0.0161 µM
Cn1nccc1-c1cc2cc(NC(=O)[C@@H]3C[C@@H]3F)ncc2c(N)n1 [Compound 18, (1S,2S)—N-(8-amino-6-(1-methyl-1H-pyrazol-5-yl)-2,7-naphthyridin-3-yl)-2-fluorocyclopropanecarboxamide]	0.0475 µM
Cc1cc(CO)ncc1-c1cc2cc(NC(=O)C3CC3)ncc2c(N)n1 [Compound 25, N-(8-amino-6-(6-(hydroxymethyl)-4-methylpyridin-3-yl)-2,7-naphthyridin-3-yl)cyclopropanecarboxamide]	0.00154 µM
Cn1cc(-c2cc3cc(NC(=O)C4CC4)ncc3c(N)n2)cn1 [Compound 27, N-[8-amino-6-(1-methylpyrazol-4-yl)-2,7-naphthyridin-3-yl]cyclopropanecarboxamide]	0.00108 µM
Cc1ccncc1-c1cc2cc(NC(=O)C(C)(C)C#N)ncc2c(N)n1 [Compound 35, N-(8-amino-6-(4-methylpyridin-3-yl)-2,7-naphthyridin-3-yl)-2-cyano-2-methylpropanamide]	5.54 µM
COC(C)(C)C(=O)Nc1cc2cc(-c3cnccc3C)nc(N)c2cn1 [Compound 36, N-(8-amino-6-(4-methylpyridin-3-yl)-2,7-naphthyridin-3-yl)-2-methoxy-2-methylpropanamide]	4.08 µM
Nc1nc(N2CCOC2=O)cc2cc(NC(=O)C3CC3)ncc12 [Compound 40, N-(8-amino-6-(2-oxooxazolidin-3-yl)-2,7-naphthyridin-3-yl)cyclopropanecarboxamide]	0.098 µM

same assay, conditions: Table B1-2, read-out: HPK1 Ki, L = Lanth

Ki	Compound
0.0018 µM	Cc1cc(C2=N[C@@H](C(C)C)CO2)ncc1-c1cc2cc(NC(=O)[C@H]3C[C@@H]3c3cnn(C)c3)ncc2c(N)n1 (stereo in doubt) [Compound 384, trans-N-(8-amino-6-(6-((S)-4-isopropyl-4,5-dihydrooxazol-2-yl)-4-methylpyridin-3-yl)-2,7-naphthyridin-3-yl)-2-(1-methyl-1H-pyrazol-4-yl)cyclopropane-1-carboxamide]
